Source: the NIST ThermoML archive (doi:10.1021/je900387e)

Test: xn = mol fraction of the nth substance listed
Details: Liquid, Pycnometric method

Cn1ccnc1 [1-methylimidazole] + O=C=O
Details | mass density [kg/m3]
308.2 K, 7790 kPa, x1 = 0.0247 | 745
308.2 K, 7860 kPa, x1 = 0.0102 | 638
308.2 K, 7870 kPa, x1 = 0.0102 | 640
308.2 K, 7900 kPa, x1 = 0.0102 | 646
308.2 K, 7940 kPa, x1 = 0.0102 | 652
308.2 K, 7950 kPa, x1 = 0.0102 | 655
308.2 K, 7970 kPa, x1 = 0.0247 | 755
308.2 K, 7980 kPa, x1 = 0.0102 | 661
308.2 K, 8020 kPa, x1 = 0.0102 | 667
308.2 K, 8080 kPa, x1 = 0.0102 | 676
308.2 K, 8160 kPa, x1 = 0.0102 | 686
308.2 K, 8200 kPa, x1 = 0.0247 | 766
308.2 K, 8260 kPa, x1 = 0.0102 | 696
308.2 K, 8380 kPa, x1 = 0.0102 | 706
308.2 K, 8470 kPa, x1 = 0.0247 | 777
308.2 K, 8520 kPa, x1 = 0.0102 | 716
308.2 K, 8590 kPa, x1 = 0.0487 | 838
308.2 K, 8680 kPa, x1 = 0.0487 | 841
308.2 K, 8690 kPa, x1 = 0.0102 | 727
308.2 K, 8790 kPa, x1 = 0.0487 | 844
308.2 K, 8820 kPa, x1 = 0.0247 | 790
308.2 K, 8910 kPa, x1 = 0.0102 | 738
308.2 K, 8910 kPa, x1 = 0.0487 | 847
308.2 K, 9040 kPa, x1 = 0.0487 | 849
308.2 K, 9150 kPa, x1 = 0.0102 | 750
308.2 K, 9150 kPa, x1 = 0.0487 | 852
308.2 K, 9250 kPa, x1 = 0.0247 | 802
308.2 K, 9290 kPa, x1 = 0.0487 | 853
308.2 K, 9440 kPa, x1 = 0.0102 | 761
308.2 K, 9450 kPa, x1 = 0.0487 | 858
308.2 K, 9600 kPa, x1 = 0.0487 | 860
308.2 K, 9750 kPa, x1 = 0.0247 | 815
308.2 K, 9750 kPa, x1 = 0.0487 | 863
308.2 K, 9800 kPa, x1 = 0.0102 | 773
308.2 K, 9850 kPa, x1 = 0.1024 | 937
308.2 K, 9920 kPa, x1 = 0.0487 | 866
308.2 K, 10030 kPa, x1 = 0.1024 | 939
308.2 K, 10130 kPa, x1 = 0.0247 | 824
308.2 K, 10200 kPa, x1 = 0.0102 | 786
308.2 K, 10360 kPa, x1 = 0.1024 | 942
308.2 K, 10560 kPa, x1 = 0.0247 | 833
308.2 K, 10630 kPa, x1 = 0.1024 | 945
308.2 K, 10700 kPa, x1 = 0.0102 | 799
308.2 K, 11000 kPa, x1 = 0.1024 | 948
308.2 K, 11070 kPa, x1 = 0.0247 | 842
308.2 K, 11250 kPa, x1 = 0.0102 | 812
308.2 K, 11310 kPa, x1 = 0.1024 | 951
308.2 K, 11620 kPa, x1 = 0.0247 | 851
308.2 K, 11710 kPa, x1 = 0.1024 | 954
308.2 K, 11920 kPa, x1 = 0.0102 | 826
308.2 K, 12010 kPa, x1 = 0.1024 | 956
308.2 K, 12240 kPa, x1 = 0.0247 | 860
308.2 K, 12460 kPa, x1 = 0.1024 | 960
308.2 K, 12590 kPa, x1 = 0.0247 | 865
308.2 K, 12610 kPa, x1 = 0.0102 | 840
308.2 K, 12820 kPa, x1 = 0.1024 | 963
308.2 K, 12940 kPa, x1 = 0.0247 | 870
308.2 K, 13250 kPa, x1 = 0.1024 | 966
308.2 K, 13310 kPa, x1 = 0.0247 | 875
308.2 K, 13440 kPa, x1 = 0.0102 | 859
308.2 K, 13690 kPa, x1 = 0.1024 | 969
308.2 K, 13720 kPa, x1 = 0.0247 | 880
308.2 K, 14140 kPa, x1 = 0.0247 | 885
308.2 K, 14140 kPa, x1 = 0.1024 | 972
308.2 K, 14560 kPa, x1 = 0.0102 | 875
308.2 K, 14570 kPa, x1 = 0.1024 | 975
308.2 K, 14610 kPa, x1 = 0.0247 | 890
308.2 K, 14990 kPa, x1 = 0.0102 | 880
308.2 K, 15060 kPa, x1 = 0.0247 | 895
308.2 K, 15080 kPa, x1 = 0.1024 | 978
308.2 K, 15430 kPa, x1 = 0.0102 | 886
308.2 K, 15540 kPa, x1 = 0.1024 | 981
308.2 K, 15600 kPa, x1 = 0.0247 | 901
308.2 K, 16080 kPa, x1 = 0.1024 | 984
308.2 K, 16570 kPa, x1 = 0.1024 | 987
308.2 K, 17250 kPa, x1 = 0.1024 | 991
308.2 K, 17650 kPa, x1 = 0.1024 | 994
308.2 K, 18340 kPa, x1 = 0.1024 | 998
308.2 K, 18880 kPa, x1 = 0.1024 | 1001
309.8 K, 8020 kPa, x1 = 0.0102 | 543
309.8 K, 8030 kPa, x1 = 0.0102 | 551
309.8 K, 8040 kPa, x1 = 0.0102 | 560
309.8 K, 8060 kPa, x1 = 0.0102 | 571
309.8 K, 8070 kPa, x1 = 0.0102 | 581
309.8 K, 8090 kPa, x1 = 0.0102 | 589
309.8 K, 8110 kPa, x1 = 0.0102 | 600
309.8 K, 8140 kPa, x1 = 0.0102 | 612
309.8 K, 8180 kPa, x1 = 0.0102 | 624
309.8 K, 8230 kPa, x1 = 0.0102 | 636
309.8 K, 8300 kPa, x1 = 0.0102 | 649
309.8 K, 8390 kPa, x1 = 0.0102 | 663
309.8 K, 8500 kPa, x1 = 0.0102 | 677
309.8 K, 8650 kPa, x1 = 0.0102 | 691
309.8 K, 8830 kPa, x1 = 0.0102 | 707
309.8 K, 9090 kPa, x1 = 0.0102 | 723
309.8 K, 9420 kPa, x1 = 0.0102 | 740
309.8 K, 9830 kPa, x1 = 0.0102 | 758
309.8 K, 10210 kPa, x1 = 0.0102 | 772
309.8 K, 10880 kPa, x1 = 0.0102 | 790
309.8 K, 11970 kPa, x1 = 0.0102 | 816
309.8 K, 12530 kPa, x1 = 0.0102 | 826
309.8 K, 13140 kPa, x1 = 0.0102 | 836
309.8 K, 13680 kPa, x1 = 0.0102 | 846
313.1 K, 8750 kPa, x1 = 0.0102 | 576
313.1 K, 8770 kPa, x1 = 0.0102 | 581
313.1 K, 8810 kPa, x1 = 0.0102 | 589
313.1 K, 8850 kPa, x1 = 0.0102 | 597
313.1 K, 8890 kPa, x1 = 0.0102 | 606
313.1 K, 8900 kPa, x1 = 0.0247 | 717
313.1 K, 8940 kPa, x1 = 0.0102 | 615
313.1 K, 8990 kPa, x1 = 0.0102 | 624
313.1 K, 9000 kPa, x1 = 0.0247 | 723
313.1 K, 9040 kPa, x1 = 0.0102 | 633
313.1 K, 9120 kPa, x1 = 0.0102 | 643
313.1 K, 9120 kPa, x1 = 0.0247 | 729
313.1 K, 9200 kPa, x1 = 0.0102 | 653
313.1 K, 9260 kPa, x1 = 0.0247 | 737
313.1 K, 9300 kPa, x1 = 0.0102 | 663
313.1 K, 9400 kPa, x1 = 0.0247 | 744
313.1 K, 9420 kPa, x1 = 0.0102 | 673
313.1 K, 9550 kPa, x1 = 0.0102 | 684
313.1 K, 9560 kPa, x1 = 0.0247 | 751
313.1 K, 9700 kPa, x1 = 0.0102 | 695
313.1 K, 9730 kPa, x1 = 0.0247 | 759
313.1 K, 9900 kPa, x1 = 0.0102 | 707
313.1 K, 9940 kPa, x1 = 0.0247 | 766
313.1 K, 10070 kPa, x1 = 0.0487 | 827
313.1 K, 10130 kPa, x1 = 0.0102 | 719
313.1 K, 10170 kPa, x1 = 0.0247 | 774
313.1 K, 10190 kPa, x1 = 0.0487 | 830
313.1 K, 10320 kPa, x1 = 0.0487 | 833
313.1 K, 10380 kPa, x1 = 0.0102 | 731
313.1 K, 10440 kPa, x1 = 0.0487 | 835
313.1 K, 10560 kPa, x1 = 0.0487 | 838
313.1 K, 10570 kPa, x1 = 0.0247 | 786
313.1 K, 10690 kPa, x1 = 0.0487 | 841
313.1 K, 10700 kPa, x1 = 0.0102 | 744
313.1 K, 10830 kPa, x1 = 0.0487 | 843
313.1 K, 10870 kPa, x1 = 0.0247 | 794
313.1 K, 10990 kPa, x1 = 0.0487 | 846
313.1 K, 11080 kPa, x1 = 0.0102 | 758
313.1 K, 11130 kPa, x1 = 0.0487 | 849
